Measured values published in PMC6105804, “In Vitro and In Vivo Evaluation of APX001A/APX001 and Other Gwt1 Inhibitors against Cryptococcus” (Antimicrobial Agents and Chemotherapy, 2018).

How the values were obtained:
C. neoformans strain H99 [1] = test: Murine cryptococcal meningitis model with ABT, dose-response study; format: in vivo, Cryptococcus neoformans
Method: A dose-response study was performed with APX2096 and APX2097 to confirm the observed activity. In this study, QD doses of 7.5, 20, and 60 mg/kg were evaluated in conjunction with the administration of ABT. A 60-mg/kg dose QD without ABT was also evaluated as a control.
FIG 3 Dose-response of APX2096 and APX2097 in a murine model of cryptococcal meningitis in conjunction with ABT administration. ABT at 100 mg/kg was administered orally to male CD-1 mice at 2 h prior to each APX compound dose. Mice were injected with 4.8 × 10^4 CFU C. neoformans strain H99 per mouse via the lateral tail vein at time zero. Treatment with the APX compounds was initiated at 1 h postinfection by i.p. administration and continued for 7 days, with 100-mg/kg ABT being administered orally 2 h prior to each APX compound dose. The correction factors for prodrug potencies versus the potencies of the active moieties were similar enough such that the same factor (1.3) was used for all APX compounds. Fungal burden data were log10 transformed and evaluated using Kruskal-Wallis tests with Dunn's multiple-comparison test for post hoc analysis (Prism software, v5; GraphPad Software, Inc., San Diego, CA). […] A P value of ≤0.05 was considered statistically significant (*, P ≤ 0.05; **, P ≤ 0.01; ***, P ≤ 0.001). The 95% confidence interval (CI) is presented.
(§1) C. neoformans strain H99 was grown in yeast extract-peptone-dextrose broth at 30°C on a shaker (220 rpm) for 24 h, centrifuged (1,980 relative centrifugal force), and washed twice in phosphate-buffered saline (PBS), resuspended in PBS, and quantified by hemacytometric count. Male CD-1 mice were infected with ∼5 × 10^4 CFU per mouse via lateral tail vein injection of 100 μl. Mice were weighed, and treatment was begun within 1 h after infection. Treatments were administered daily for 7 days. Mice were weighed daily and observed for acute and chronic adverse symptoms. Mice were sacrificed on day 8, and the brain and left lung were homogenized and cultured for quantitative determination of the tissue burden (number of CFU per gram of tissue). Tissues were homogenized for 25 s in 1 ml phosphate-buffered saline using two 6.5-mm steel beads and a Mini-Beadbeater 16 apparatus (Biospec Products, Inc., Bartlesville, OK) and serially diluted in 10-fold steps. Aliquots (100 μl) of homogenate were plated and incubated for 3 to 7 days at 37°C. Fungal burden data were log10 transformed and evaluated using Kruskal-Wallis tests with Dunn's multiple-comparison test for post hoc analysis (Prism software, v5; GraphPad Software, Inc., San Diego, CA). A P value of ≤0.05 was considered statistically significant.

[2] = Acute toxicity and survival observed in the CM model with ABT; format: in vivo, mouse; details: i.p. dosing + ABT; dose then reduced to 60 mg/kg for surviving mice
Method: (§2) ABT at 100 mg/kg was administered orally to male CD-1 mice at 2 h prior to each APX compound dose. Mice were injected with 6.9 × 10^4 CFU of C. neoformans strain H99 per mouse via the lateral tail vein at time zero. Treatment with the APX compound was initiated at about 1 h postinfection by i.p. administration and continued for 7 days, with 100-mg/kg ABT being administered orally 2 h prior to each APX compound dose. […] Fungal burden data were log10 transformed and evaluated using Kruskal-Wallis tests with Dunn's multiple-comparison test for post hoc analysis (Prism software, v5; GraphPad Software, Inc., San Diego, CA). A P value of ≤0.05 was considered statistically significant (*, P ≤ 0.05; **, P ≤ 0.01). The 95% confidence interval (CI) is presented.
as §1

C. neoformans strain H99 [3] = test: Murine cryptococcal meningitis model with ABT pretreatment (preliminary experiment); format: in vivo, Cryptococcus neoformans; details: 7 days
Method: In a preliminary experiment, the efficacies of APX001, APX2096, and APX2097 were evaluated in the disseminated model of CM (n = 5 mice/cohort). ABT at 100 mg/kg was administered orally to male CD-1 mice 2 h prior to APX compound administration. Mice were injected with 6.9 × 10^4 CFU of C. neoformans strain H99 per mouse via the lateral tail vein at time zero. Treatment with each prodrug was initiated at about 1 h postinfection by i.p. administration and continued daily for 7 days, with 100-mg/kg ABT being administered orally 2 h prior to each APX compound dose.
as §2, §1

C. neoformans strain H99 [4] = test: Delayed-treatment model of cryptococcal meningitis; format: in vivo, Cryptococcus neoformans; details: treatment from 24 h after infection, QD 7 days; APX2096 60 mg/kg i.p. + ABT, AMB 3 mg/kg i.p.
Method: As in the previous mouse model, 100-mg/kg ABT (p.o.) was administered 2 h prior to each APX2096 dose (n = 5 mice/cohort). Infection was initiated on day 1, and treatment was initiated 24 h later (day 2) rather than 1 h later. Treatments were administered for 7 days (the final dose was administered on day 8), and mice were sacrificed on day 9 for CFU enumeration.
Male CD-1 mice were infected with 5.4 × 10^4 CFU per mouse via lateral tail vein injection. […] A dose of 100-mg/kg ABT was administered orally 2 h prior to each APX2096 dose. Mice were sacrificed 24 h after the last dose, and the brain and left lung were homogenized and cultured for quantitative determination of the tissue burden (number of CFU per gram of tissue). Fungal burden data were log10 transformed and evaluated using Kruskal-Wallis tests with Dunn's multiple-comparison test for post hoc analysis (Prism software, v5; GraphPad Software, Inc., San Diego, CA). A P value of ≤0.05 was considered statistically significant (*, P ≤ 0.05; **, P ≤ 0.01). The 95% confidence interval (CI) is presented.
Fungal burden data were log10 transformed and evaluated using Kruskal-Wallis tests with Dunn's multiple-comparison test for post hoc analysis (Prism software, v5; GraphPad Software, Inc., San Diego, CA). A P value of ≤0.05 was considered statistically significant.

[5] = 34 mg/kg QD i.p. + ABT 100 mg/kg p.o.

## Nc1c(-c2cc(Cc3ccc(Oc4cccc(F)n4)cc3)no2)ccc[n+]1COP(=O)([O-])O [APX2096]
C. neoformans strain H99 [1]; 20 mg/kg QD i.p. + ABT
  reduction in brain fungal burden: 2.95 log10 CFU/g
  reduction in lung fungal burden: 3.69 log10 CFU/g
C. neoformans strain H99 [1]; 60 mg/kg/day i.p. without ABT, nonsignificant
  reduction in lung burden, without ABT: 0.74 log10 CFU/g
[2]
  Acute toxicity observed (day of treatment): day 1
C. neoformans strain H99 [3]; [5]
  reduction in brain fungal burden: 7.05 log10 CFU/g
  reduction in lung fungal burden: approximately 4.67 log10 CFU/g
C. neoformans strain H99 [3]; 60 mg/kg i.p. (dose reduced after day 1) + ABT
  reduction in brain fungal burden: 7.13 log10 CFU/g
C. neoformans strain H99 [3]; 60 mg/kg i.p. (dose reduced after day 1) + ABT, burden below the limit of detection
  reduction in lung fungal burden: approximately 4.67 log10 CFU/g
C. neoformans strain H99 [4]
  reduction in brain tissue fungal burden vs untreated control: 6.84 log10 CFU/g
  reduction of the lung tissue fungal burden vs untreated control: 4.59 log10 CFU/g
